Measurements taken from patent US4623626A (priority 1982, dated 1986).
Entries after “also recorded” stand apart in the source; their conditions may differ. Where two headings read alike, the source gives them in different places.

How the values were obtained:
[1] = target: T1, L-glutamic acid oxidase (enzyme of the present invention) (Streptomyces sp, UniProt Q8L3C7); assay: Effects of additives on the enzyme activity (inhibition, activation); format: biochemical, Streptomyces sp. X-119-6; conditions: additive 1 mM
T1 construct: isolated and purified the enzyme of the present invention as a single enzyme protein from such a cultured product of the microorganism; made in house; host or cells: natural producer, Streptomyces sp; (strain X-119-6 per the earlier reading); enzyme purified from the cultured product, not recombinant
T1 sequence (Q8L3C7 15-390 limits assumed): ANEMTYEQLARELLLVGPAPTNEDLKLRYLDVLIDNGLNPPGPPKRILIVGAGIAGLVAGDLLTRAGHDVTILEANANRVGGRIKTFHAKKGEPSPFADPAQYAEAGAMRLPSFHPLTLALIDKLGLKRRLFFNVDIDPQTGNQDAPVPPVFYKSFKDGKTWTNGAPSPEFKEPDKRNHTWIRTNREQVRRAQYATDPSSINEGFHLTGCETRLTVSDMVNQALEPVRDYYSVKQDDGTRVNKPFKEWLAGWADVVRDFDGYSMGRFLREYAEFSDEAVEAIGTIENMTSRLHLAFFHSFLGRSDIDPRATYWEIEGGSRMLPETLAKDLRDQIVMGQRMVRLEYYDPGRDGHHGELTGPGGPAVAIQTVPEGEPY
T1 sequence (Q8L3C7 391-520 limits assumed): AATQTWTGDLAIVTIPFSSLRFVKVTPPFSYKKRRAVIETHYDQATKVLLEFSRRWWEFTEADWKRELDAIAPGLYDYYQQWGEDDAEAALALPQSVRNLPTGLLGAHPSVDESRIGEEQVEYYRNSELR
T1 sequence (Q8L3C7 521-701 limits assumed): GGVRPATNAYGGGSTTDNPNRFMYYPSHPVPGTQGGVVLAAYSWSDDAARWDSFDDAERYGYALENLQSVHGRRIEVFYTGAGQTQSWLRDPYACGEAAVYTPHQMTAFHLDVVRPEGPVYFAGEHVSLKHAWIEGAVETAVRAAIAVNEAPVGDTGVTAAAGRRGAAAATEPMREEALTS
Protocol: For examination of the effects of various additives on the enzyme activity of the present invention, enzymatic reaction was carried out in a reaction mixture (pH 7.4) containing each of the substances shown in Table 2 at a concentration of 1 mM.

[2] = tested on: glutamic acid oxidase (known enzyme); conditions: cited from earlier work
[3] = target: T1, L-glutamic acid oxidase (enzyme of the present invention); assay: Substrate specificity of the enzyme of the present invention, oxygen electrode method; format: biochemical, Streptomyces sp. X-119-6
Protocol: The concentration of each substrate was 10 mM, and the reactions were carried out at pH 7.4 (0.1 M potassium phosphate buffer) and pH 6.0 (0.1 M acetate buffer).

[4] = tested on: glutamic acid oxidase (known enzyme); conditions: cited from earlier work; for activity of the known enzyme for the substrate: relative to L-glutamic acid; for relative activity of the known enzyme: velocity for L-glutamic acid given as 100
[5] = pH of 6.0 or less or pH 10.0 or more
[6] = target: T1, L-glutamic acid oxidase (enzyme of the present invention); assay: km values of the enzyme of the present invention; format: biochemical, Streptomyces sp. X-119-6; conditions: pH 7.4
Protocol: That is, 1 ml of 0.1 M potassium phosphate buffer (pH 7.4) containing 10 mM sodium L-glutamate was charged into an oxygen electrode cell and 10 μl of an enzyme solution was added thereto to measure the oxygen consumption rate. One unit of enzyme was determined as the amount of enzyme which consumes 1μ mol of oxygen per minute at 30° C. in the absence of catalase (unit: hereinafter abbreviated as "U").

[Ca+2].[Cl-].[Cl-] [CaCl2] showed a Relative activity ([1]; reaction mixture pH 7.4, no addition = 100) of 100.0.

For [Cl][Cu][Cl] [CuCl2, cupric chloride], the “inhibition of the known enzyme” value [2] is listed as “completely inhibited” and the “inhibition of the activity of the enzyme of the present invention” value ([1]; pH 7.4) is listed as “not inhibited at all”.

In the case of [Cu+2] [copper ions], the “inhibition of the known enzyme” value [2] is listed as “Substantially completely inhibited; also recorded: markedly inhibited”.

In the case of N[C@H](CCC(=O)O)C(=O)O [D-Glutamic acid], the “activity of the enzyme of the present invention for the substrate” value (from here on “activity of the enzyme … for the substrate”) [3] is reported as “substantially no activity”.

For N[C@@H](Cc1c[nH]cn1)C(=O)O [L-Histidine], the “activity of the enzyme … for the substrate” value [3] is given as “substantially no activity”, the “activity of the known enzyme for the substrate” value [4] is given as 6.8% and the “relative activity of the known enzyme” value [4] is given as 6.8.

In the case of NC(=O)CC[C@H](N)C(=O)O [L-Glutamine], the “activity of the enzyme … for the substrate” value [3] is listed as “substantially no activity”, the “activity of the known enzyme for the substrate” value [4] is listed as 8.4% and the “relative activity of the known enzyme” value [4] is listed as 8.4.

For N[C@@H](CC(=O)O)C(=O)O [L-Aspartic acid], the “action of the enzyme of the present invention on the substrate” value [5] is listed as “substantially no action”, the “activity of the enzyme … for the substrate” value ([3]; pH 6.0) is listed as “substantially no activity” and the “activity of the known enzyme for the substrate” value [4] is listed as at most 0.1%. The Km [6] was 29 mM.
